Source: patent US20160022718A1, “METHODS OF LOWERING BLOOD PRESSURE” (LEXICON PHARMACEUTICALS, INC., priority 2010, published 2016)

Tested on: patients with type 2 diabetes mellitus
Assay: randomized, double-blind, placebo controlled Phase 2a clinical trial, 28 days once daily oral dosing
Type: in vivo, human
Conditions: for Change in Weight, change from baseline / Seated Diastolic BP, change from baseline / Seated Systolic BP, change from baseline / Serum Triglyceride, change from baseline: four-week treatment; for Change in Weight, change from baseline: placebo −2.2; for Seated Diastolic BP, change from baseline: placebo −2.9; for Seated Systolic BP, change from baseline: placebo −4.3; for Serum Triglyceride, change from baseline: placebo −20.2; for reduction of average percent HbA1c after four weeks of dosing: placebo 0.49; for reduction in fasting plasma glucose level at week four: placebo 15.1 mg/dl
Experimental: Certain aspects of this invention may be understood with reference to the figures, which provide results obtained from a randomized, double-blind, placebo controlled Phase 2a clinical trial, wherein 150 mg and 300 mg doses of a compound of the invention were orally administered once daily to patients with type 2 diabetes mellitus.
This invention is based, in part, on findings—provided herein—obtained from a randomized, double-blind, placebo controlled Phase 2a clinical trial, wherein 150 mg/day and 300 mg/day doses of a dual SGLT1/2 inhibitor were administered to patients with type 2 diabetes mellitus. The dual SGLT1/2 inhibitor was (2S,3R,4R,5S,6R)-2-(4-chloro-3-(4-ethoxybenzyl)phenyl)-6-(methylthio)tetrahydro-2H-pyran-3,4,5-triol, which has the structure:
Patients (n=36) with type 2 diabetes mellitus received one of two oral doses of (2S,3R,4R,5S,6R)-2-(4-chloro-3-(4-ethoxybenzyl)phenyl)-6-(methylthio)tetrahydro-2H-pyran-3,4,5-triol, given as 150 mg or 300 mg once daily, or matching placebo, for 28 days.
In this study, patients on metformin were taken off of the drug 16 days prior to day 0, the day dosing first began.

[1] = both treatment groups (150 mg/day and 300 mg/day)

SMILES: CCOc1ccc(Cc2cc([C@@H]3O[C@H](SC)[C@@H](O)[C@H](O)[C@H]3O)ccc2Cl)cc1 [(2S,3R,4R,5S,6R)-2-(4-chloro-3-(4-ethoxybenzyl)phenyl)-6-(methylthio)tetrahydro-2H-pyran-3,4,5-triol]
- Change in Weight, change from baseline (150 mg (n = 12)): −3.4%
- Seated Diastolic BP, change from baseline (150 mg (n = 12)): −5.8 mmHg
- Seated Systolic BP, change from baseline (150 mg (n = 12)): −10.3 mmHg
- Serum Triglyceride, change from baseline (150 mg (n = 12)): -66.6 mg/dL
- reduction of average percent HbA1c after four weeks of dosing (150 mg dose group, p=0.036, baseline 8.22%): 1.15%
- reduction in fasting plasma glucose level at week four (150 mg dose group): 53.4 mg/dL
- dose-limiting toxicities (150 mg or 300 mg once daily, 28 days): no evidence of dose-limiting toxicities was observed
- adverse events (150 mg or 300 mg once daily, 28 days, evenly distributed across all dose groups, including placebo): generally mild
- insulin sensitivity, homeostatic model assessment (HOMA) (FIG. 4) (150 mg/day and 300 mg/day groups vs placebo, day 27): improved insulin sensitivity
- mean plasma glucose AUC (FIG. 3) (150 mg/day and 300 mg/day groups, after one day of treatment): statistically significant decreases
- Change in Weight, change from baseline (300 mg (n = 12)): −3.7%
- Seated Diastolic BP, change from baseline (300 mg (n = 12)): −5.3 mmHg
- Seated Systolic BP, change from baseline (300 mg (n = 12)): −13.1 mmHg
- Serum Triglyceride, change from baseline (300 mg (n = 12)): -62.8 mg/dL
- reduction of average percent HbA1c after four weeks of dosing (300 mg dose group, p=0.017, baseline 8.50%): 1.25%
- percentage of patients achieving fasting plasma glucose levels of <105 mg/dl at week four (300 mg dose group, p=0.037 vs placebo): 42%
- reduction in fasting plasma glucose level at week four (300 mg dose group): 65.9 mg/dL
- share of patients with HbA1c levels reduced to less than or equal to 7% (both dose groups (150 mg and 300 mg), four weeks): half
- glucosuria over the 28-day dosing period compared to placebo (both dose levels (150 mg and 300 mg once daily, oral), preliminary data): significant and sustained glucosuria
- glucose tolerance vs placebo group (FIG. 2) [1]: greater glucose tolerance
- mean arterial pressure, day 28 compared to baseline (FIG. 10) [1]: decreased
- post-prandial glucose levels compared to placebo (FIG. 5) [1]: rapid, statistically significant decrease
